Read-outs that look alike come from different tables or passages of the source.
Legend:
MCF-10A cells = test: MTT assay, MCF-10A; format: cell-based, human; conditions: for IC50: Homo sapiens, MCF-10A, 24 h, 0 to 250 μM, read-out: IC50 Non-Malignant Breast Epithelial Cells (MCF-10A)
Protocol: (§1) To establish the cytotoxic effect of the nitrogenous derivatives, cells were treated with various concentrations of the drugs ranging from 0 to 250 μM. Following a 24 h incubation period, cell viability was assessed using the MTT assay. Mitoxantrone served as a positive control to evaluate growth inhibition. Since heterogeneity is a hallmark of cancer, the study included cell lines with diverse genomic and proteomic profiles. […] In this regard, further optimization would be required to increase the selective therapeutic potential of compound 9. To determine whether the anti-proliferative effect of the nitrogen derivatives could be translated to other malignancies, we tested the cytotoxic effect on the HCT8 (colorectal cancer) cell line. HCT8 is an adenocarcinoma driven by the Kirsten Rat Sarcoma (KRAS) mutation, unlike MCF-10A [28].
(§2) The MTT assay was utilized to examine the imidazole derivatives’ anti-proliferative activity against MCF-10A, MDA-MB-231, and HCT8 cell lines, purchased from ATCC, USA [47]. Firstly, 5 × 10^3 cells/well were seeded in a 96-well plate in 100 μL of growth medium and were subsequently cultured overnight with various concentrations of each compound ranging from 0 to 250 µM [48]. The media was aspirated, and 50 µL of serum-free media and 50 µL of MTT solution were added to each well. Next, cells were incubated at 37 °C for 3 h, then 150 µL of MTT solvent was added into each well. After that, plates were wrapped in foil and agitated for 15 min on an orbital shaker. Finally, the absorbance was measured within 1 h at OD590 nm. Half-maximal inhibitory concentration IC50 values (μM) were calculated for each compound from the dose–response curve. Experiments were performed in triplicates.

HL60 cells = test: CellTiter-Glo assay, HL60; format: cell-based, human; conditions: read-out: IC50 Leukemia HL60
Protocol: (§3) To validate the anti-proliferative activity of the imidazole derivatives, the compounds were tested against several cancer cell lines, which included breast cancer (MDA-MB-231, KAIMRC1, and KAIMRC2), colorectal cancer (HCT8), and acute promyelocytic leukemia cells (HL60). KAIMRC1 was isolated from a person with stage II-B breast cancer and is ER+/PR+ and HER2-. In comparison, KAIMRC2 was isolated from a person with metastasized breast cancer and is a triple-negative (ER-/PR-, and HER2-) tumor cell line.
(§4) The CellTiter-Glo assay (Promega™, Madison, WI, USA) was used to evaluate imidazole and oxazolone derivatives cytotoxicity against various cancer cell lines; MCF-10A, HL60, MDA-MB-231, and HCT8, purchased from ATCC, USA, except KAIMRC1 and KAIMRC2, which were isolated, established, and characterized in the core laboratory facility KAIMRC, Riyadh, Saudi Arabia. The cells were seeded in white 96-well plates at a density of 5 × 10^3 cells/well in a 100 μL of growth medium with various concentrations of each compound ranging from 0 to 250 µM. Cells were incubated at 37 °C for 24 h. Plates were equilibrated at RT for 30 min. A quantity of 100 µL of CellTiter-Glo reagent was added to each well and mixed for 2 min on an orbital shaker. Plates were incubated for 10 min at RT before measuring the luminescence using an Envision plate reader (Perkin Elmer). Half-maximal inhibitory concentration IC50 values (μM) were calculated for each imidazole derivative from the dose–response curve. The cytotoxic effect at a concentration <10 µM was considered strongly active and from 11 to 100 µM was considered moderately active, whereas above 100 µM was deemed non-active. Mitoxantrone was utilized as a positive control. Experiments were performed in triplicates.

MDA-MB-231 cells [1] = test: CellTiter-Glo assay, MDA-MB-231; format: cell-based; conditions: Homo sapiens, 24 h, read-out: IC50 Breast Cancer MDA-MB-231
Protocol: as §3, §4

[2] = tested on: tubulin in MDA-MB-231 cells; test: Tubulin staining and imaging (microtubular network); format: cell-based, human; conditions: 48 h; for effect on the microtubular network / tubulin: MDA-MB-231, 15.6 and 31 µM
Text: An established cytotoxic mechanism of action of some nitrogenous heteroaromatic compounds is through the inhibition of tubulin. Normal microtubule function is essential during mitosis for mitotic spindle formation to allow chromatid separation, without which cell replication would cease. In addition, microtubules are critical for maintaining the cytoskeletal integrity of normal cells. Currently used cytotoxic anti-neoplastic classes of drugs such as the taxanes and vinca alkaloids also either inhibit microtubule assembly or disassembly, thus preventing mitosis from occurring. Therefore, we investigated the effects of compounds 8 and 9 on the modulation of microtubule function by assessing their effect on tubulin.
MDA- MB 231 cells were treated with compounds 8 and 9 at two concentrations, 15.6 and 31.25 µM, for 48 h. The cells were stained with tubulin tracker™ Green (Cat #T34075) in HBSS for 30 min and nucleus stain HOECHST33342 (blue) for 5 min. The samples were imaged with Zeiss laser-scanning 780 microscopes.
Following the standard protocol, tubulin and microtubule-associated proteins (MAPs) were developed, accompanied by two cycles of polymerization and depolymerization. MDA-MB231 cells were treated with compounds 8 and 9 at concentrations of 31.25 and 15.6 µM for 48 h. Subsequently, the media was replaced with HBSS, and the MDA-MB231 cells were stained with tubulin tracker™ Green 51(Cat #T34075) for 30 min and HOECHST33342 for 5 min. The Zeiss laser-scanning 780 microscope was used for imaging.

MDA-MB-231 cells [3] = test: MTT assay, MDA-MB-231; format: cell-based, human; conditions: 0 to 250 μM, read-out: IC50 Breast Cancer (MDA-MB-231)
Protocol: as §1, §2

MDA-MB-231 cells [4] = test: ApoTox-Glo triplex assay (caspase 3/7); format: cell-based, human; conditions: MDA-MB-231, 24 h, various concentrations
Text: The ApoTox-Glo® triplex assay was utilized to further evaluate the effect of compound 9 on the MDA-MB-231 cancer cell viability, cytotoxicity, and apoptosis. This assay employs a luminogenic peptide substrate for caspase 3/7 to measure caspase activity, which is used as a marker for apoptosis within the cells. […] However, since this assay was time-dependent, the level of cytotoxicity (Figure 7B) determined, in this case, was not a true representative of the compound’s cytotoxic potential; it is reasonable to say that at the endpoint of apoptosis (Figure 7C), a heightened level of cytotoxicity would be observed.
The Promega ApoTox-Glo® triplex assay was conducted as described by the manufacturer. Briefly, the cells were incubated at 37 °C for 12 h and then treated for 24 h with various concentrations of compound 9 [29, 30]. Next, 100 µL of the Viability and Cytotoxicity Reagent was added to each well and briefly mixed on an orbital shaker. Plates were incubated at 37 °C for 30 min, and the fluorescence was measured at the following two-wavelength sets—400Ex/505Em (Viability) and 485Ex/520 Em (Cytotoxicity)—using the Envision plate reader (Perkin Elmer). […] Finally, to determine the level of apoptosis, the luminescence associated with caspase 3/7 activation was measured using an Envision plate reader (Perkin Elmer).

Row | Structure (SMILES) | IC50 in MCF-10A relative to MDA-MB231 (cytotoxic selectivity) (MCF-10A cells) | IC50 (MCF-10A cells) [µM] | IC50 (HL60 cells; 24 h) [µM] | IC50 (HL60 cells; Homo sapiens, HL-60, 24 h) [µM] | IC50 (MDA-MB-231 cells [1]) [µM] | effect on the microtubular network / tubulin [2] | IC50 (MDA-MB-231 cells [3]; 24 h) [µM] | IC50 (MDA-MB-231 cells [3]; Homo sapiens, MDA-MB-231, 24 h) [µM] | caspase 3/7-mediated apoptosis (MDA-MB-231 cells [4]) | microtubule inhibition ([2]; MDA-MB-231, 31 µM)
1 | O=C1/C(=C/c2ccccc2)N=C(c2ccccc2)N1Nc1ccc([N+](=O)[O-])cc1[N+](=O)[O-] [Compound 8] | six-fold higher | 30.7 | 9.24 | 9.23 | 19 | no effect on tubulin | 4.76 | 4.7 |  | 
2 | COc1cccc(/C=C2\N=C(c3ccccc3)N(Nc3ccc([N+](=O)[O-])cc3[N+](=O)[O-])C2=O)c1 [Compound 9] |  | 9.52 | 8.63 | 8.63 | 39.2 | interfered with the microtubular network |  | 17 | induced caspase 3-/7-mediated apoptosis in a dose-dependent manner | nearly complete microtubule inhibition
